Values after ≈ are worked out from the molar mass of the structure shown. Where a SMILES comes first, the peptide text is derived from it. The star is where a group is joined. Octanoyl = CCCCCCCC(=O)*
Assays:
[1] = tested on: Pseudomonas aeruginosa ATCC 9027; format: cell-based; conditions: ATCC 9027, 18 h
Protocol: (§1) Tests of the antibacterial activity were carried out as we just described. Briefly, for assays, the following strains of ESKAPE bacteria were chosen: Acinetobacter baumannii ATCC BAA-1605, Enterococcus faecium ATCC 700221, Klebsiella aerogenes ATCC 13048 (formerly Enterobacter aerogenes), Klebsiella pneumoniae ATCC 700603, and Pseudomonas aeruginosa ATCC 9027. Moreover, the reference strains of Staphylococcus aureus were used: S. aureus ATCC 25923, S. aureus ATCC 6538, S. aureus ATCC 33591 (MRSA), S. aureus ATCC 9144, and S. aureus ATCC 12598. Before experiments, all the strains were stored at −80 °C in Roti®-Store cryo vials (Carl Roth GmbH, Karlsruhe, Germany). To evaluate the activity of the compounds, bacteria were transferred into fresh Mueller–Hinton medium (Becton Dickinson, Warszawa, Poland) and incubated for 24 h at 37 °C. In the next step, bacterial inoculums were seeded on Mueller–Hinton agar plates (BioMaxima SA, Lublin, Poland) and incubated again for 24 h. The MIC values were determined using the broth microdilution method according to the Clinical and Laboratory Standards Institute Protocol. The initial inoculums of bacteria (0.5 × 10^5 colony forming units (CFU)/mL) prepared in Mueller–Hinton broth were exposed to the ranging concentrations of peptides (1–512 µg/mL). The experiments were conducted on 96-well microtiter plates, with a final volume of 100 µL. The inoculum densities were checked spectrophotometrically (Multiskan™ GO Microplate Spectrophotometer, Thermo Scientific, Waltham, MA, USA) at 600 nm. The results were read after incubation for 18 h at 37 °C. The MIC values were the lowest concentration at which a visible growth of microorganisms was inhibited. All experiments were conducted in triplicate. Moreover, positive (growth) and negative (sterility) controls were included.

[2] = tested on: Klebsiella pneumoniae ATCC 700603; format: cell-based; conditions: ATCC 700603, 18 h
Protocol: as §1

[3] = tested on: Klebsiella aerogenes ATCC 13048; format: cell-based; conditions: ATCC 13048, 18 h
Protocol: as §1

[4] = tested on: Enterococcus faecium ATCC 700221; format: cell-based; conditions: ATCC 700221, 18 h
Protocol: as §1

[5] = tested on: human red blood cells (hRBCs); test: Hemolysis assay; conditions: 4% (v/v) erythrocytes in PBS, peptides 1–512 µg/mL, 1 h at 37 °C, hemoglobin at 540 nm, 100% = 1% Triton-X 100; ≥ means less than 5% hemolysis up to 512 µg/mL
[6] = 18 h
[7] = tested on: S. aureus ATCC 12598; format: cell-based, Staphylococcus aureus; conditions: ATCC 12598, 18 h
Protocol: as §1

[8] = tested on: S. aureus ATCC 33591 (MRSA); format: cell-based, Staphylococcus aureus; conditions: ATCC 33591, 18 h
Protocol: as §1

[9] = tested on: S. aureus ATCC 6538; format: cell-based, Staphylococcus aureus; conditions: ATCC 6538, 18 h
Protocol: as §1

[10] = tested on: S. aureus ATCC 9144; format: cell-based, Staphylococcus aureus; conditions: ATCC 9144, 18 h
Protocol: as §1

[11] = tested on: S. aureus ATCC 25923; format: cell-based, Staphylococcus aureus; conditions: ATCC 25923, 18 h
Protocol: as §1

| SMILES | MIC P. aeruginosa [1] | MIC K. pneumoniae [2] | MIC K. aerogenes [3] | MIC E. faecium [4] | MHC5 (minimum hemolytic concentration causing 5% hemolysis of hRBCs) [5] | MIC A. baumannii [6] | MIC S. aureus 12598 [7] | MIC S. aureus 33591 [8] | MIC S. aureus 6538 [9] | MIC S. aureus 9144 [10] | MIC S. aureus 25923 [11] |
| --- | --- | --- | --- | --- | --- | --- | --- | --- | --- | --- | --- |
| CCCCCCCC(=O)N[C@@H](CCCCN)C(=O)N[C@@H](CCCNC(=N)N)C(=O)N[C@H](C(=O)N[C@H](C(=O)N[C@@H](CCC(N)=O)C(=O)N[C@@H](CCCNC(=N)N)C(=O)N[C@H](C(=O)N[C@@H](CCCCN)C(=O)N[C@@H](CC(=O)O)C(=O)N[C@@H](Cc1ccccc1)C(=O)N[C@@H](CC(C)C)C(=O)N[C@@H](CCCNC(=N)N)C(N)=O)[C@@H](C)CC)C(C)C)[C@@H](C)CC [II, C8^α-KR12-NH2] (Octanoyl-KRIVQRIKDFLR-NH2) | 16 µg/mL (≈ 9.43 µM) | 8 µg/mL (≈ 4.71 µM) | 4 µg/mL (≈ 2.36 µM) | 4 µg/mL (≈ 2.36 µM) | 64 µg/mL | 8 µg/mL (≈ 4.71 µM) | 4 µg/mL (≈ 2.36 µM) | 4 µg/mL (≈ 2.36 µM) | 2 µg/mL (≈ 1.18 µM) | 4 µg/mL (≈ 2.36 µM) | 4 µg/mL (≈ 2.36 µM) |
| CCCCCCCC(=O)NCCCC[C@H](N)C(=O)N[C@@H](CCCNC(=N)N)C(=O)N[C@H](C(=O)N[C@H](C(=O)N[C@@H](CCC(N)=O)C(=O)N[C@@H](CCCNC(=N)N)C(=O)N[C@H](C(=O)N[C@@H](CCCCN)C(=O)N[C@@H](CC(=O)O)C(=O)N[C@@H](Cc1ccccc1)C(=O)N[C@@H](CC(C)C)C(=O)N[C@@H](CCCNC(=N)N)C(N)=O)[C@@H](C)CC)C(C)C)[C@@H](C)CC [III, C8^ε-KR12-NH2] (H-K(Octanoyl)RIVQRIKDFLR-NH2) | 64 µg/mL (≈ 37.7 µM) | 32 µg/mL (≈ 18.9 µM) | 64 µg/mL (≈ 37.7 µM) | 4 µg/mL (≈ 2.36 µM) |  | 32 µg/mL (≈ 18.9 µM) | 64 µg/mL (≈ 37.7 µM) | 64 µg/mL (≈ 37.7 µM) | 8 µg/mL (≈ 4.71 µM) | 32 µg/mL (≈ 18.9 µM) | 32 µg/mL (≈ 18.9 µM) |
| CCCCCCCC(=O)N[C@@H](CCCCN)C(=O)N[C@@H](CCCCN)C(=O)N[C@@H](CCCNC(=N)N)C(=O)N[C@H](C(=O)N[C@H](C(=O)N[C@@H](CCC(N)=O)C(=O)N[C@@H](CCCNC(=N)N)C(=O)N[C@H](C(=O)N[C@@H](CCCCN)C(=O)N[C@@H](CC(=O)O)C(=O)N[C@@H](Cc1ccccc1)C(=O)N[C@@H](CC(C)C)C(=O)N[C@@H](CCCNC(=N)N)C(N)=O)[C@@H](C)CC)C(C)C)[C@@H](C)CC [IV, C8^α-Lys-KR12-NH2] (Octanoyl-KKRIVQRIKDFLR-NH2) | 32 µg/mL (≈ 17.5 µM) | 16 µg/mL (≈ 8.77 µM) | 32 µg/mL (≈ 17.5 µM) | 4 µg/mL (≈ 2.19 µM) | 256 µg/mL | 8 µg/mL (≈ 4.38 µM) | 32 µg/mL (≈ 17.5 µM) | 64 µg/mL (≈ 35.1 µM) | 8 µg/mL (≈ 4.38 µM) | 16 µg/mL (≈ 8.77 µM) | 128 µg/mL (≈ 70.1 µM) |
| CCCCCCCC(=O)NCCCC[C@H](NC(=O)CCCCCCC)C(=O)N[C@@H](CCCNC(=N)N)C(=O)N[C@H](C(=O)N[C@H](C(=O)N[C@@H](CCC(N)=O)C(=O)N[C@@H](CCCNC(=N)N)C(=O)N[C@H](C(=O)N[C@@H](CCCCN)C(=O)N[C@@H](CC(=O)O)C(=O)N[C@@H](Cc1ccccc1)C(=O)N[C@@H](CC(C)C)C(=O)N[C@@H](CCCNC(=N)N)C(N)=O)[C@@H](C)CC)C(C)C)[C@@H](C)CC [IX, C8^α,C8^ε-KR12-NH2] (Octanoyl-K(Octanoyl)RIVQRIKDFLR-NH2) | >512 µg/mL | >512 µg/mL | 512 µg/mL (≈ 281 µM) | 16 µg/mL (≈ 8.78 µM) |  | 512 µg/mL (≈ 281 µM) | 256 µg/mL (≈ 140 µM) | 256 µg/mL (≈ 140 µM) |  | 256 µg/mL (≈ 140 µM) | 512 µg/mL (≈ 281 µM) |

Reference: article PMC10053710, “Influence of Lipidation Pattern of the KR12 Fragment of Peptide LL-37 on Its Antibacterial and Hemolytic Activities” (International Journal of Molecular Sciences, 2023)
